Data from the NIST ThermoML archive (doi:10.1016/j.fluid.2017.06.019).

Settings: Coaxial cylinder method

CCC [propane]
thermal conductivity [W/m/K]
Settings | 368.46 K | 369.12 K
3948 kPa, Gas | – | 0.04135
3960 kPa, Gas | – | 0.0417
4020 kPa, Gas | – | 0.04343
4040 kPa, Gas | – | 0.04417
4115 kPa, Gas | – | 0.0486
4120 kPa, Gas | – | 0.04907
4125 kPa, Gas | – | 0.04956
4130 kPa, Gas | – | 0.05011
4135 kPa, Gas | – | 0.05071
4140 kPa, Gas | – | 0.05135
4145 kPa, Gas | – | 0.05207
4150 kPa, Gas | – | 0.0529
4154 kPa, Gas | – | 0.05366
4156 kPa, Gas | – | 0.05402
4158 kPa, Gas | – | 0.05445
4160 kPa, Gas | – | 0.05488
4162 kPa, Gas | – | 0.0554
4164 kPa, Gas | – | 0.05743
4166 kPa, Gas | – | 0.06032
4166 kPa, Liquid | 0.1166 | –
4167 kPa, Liquid | 0.1142 | –
4168 kPa, Gas | – | 0.0639
4168 kPa, Liquid | 0.112 | –
4169 kPa, Liquid | 0.1098 | –
4170 kPa, Gas | – | 0.06861
4170 kPa, Liquid | 0.1079 | –
4171 kPa, Liquid | 0.1059 | –
4172 kPa, Gas | – | 0.07431
4172 kPa, Liquid | 0.1041 | –
4173 kPa, Liquid | 0.1023 | –
4174 kPa, Liquid | 0.1007 | –
4175 kPa, Liquid | 0.09915 | –
4176 kPa, Liquid | 0.09767 | –
4177 kPa, Liquid | 0.09622 | –
4178 kPa, Liquid | 0.09487 | –
4179 kPa, Liquid | 0.09359 | –
4180 kPa, Gas | – | 0.113
4180 kPa, Liquid | 0.0923 | –
4181 kPa, Liquid | 0.09113 | –
4182 kPa, Gas | – | 0.127
4182 kPa, Liquid | 0.09007 | –
4183 kPa, Liquid | 0.08899 | –
4184 kPa, Gas | – | 0.1426
4184 kPa, Liquid | 0.08793 | –
4185 kPa, Liquid | 0.08689 | –
4186 kPa, Gas | – | 0.1588
4186 kPa, Liquid | 0.08599 | –
4187 kPa, Liquid | 0.08507 | –
4188 kPa, Gas | – | 0.179
4188 kPa, Liquid | 0.08424 | –
4189 kPa, Liquid | 0.08337 | –
4190 kPa, Gas | – | 0.1956
4190 kPa, Liquid | 0.08257 | –
4191 kPa, Liquid | 0.08179 | –
4192 kPa, Gas | – | 0.2155
4192 kPa, Liquid | 0.08112 | –
4193 kPa, Liquid | 0.08042 | –
4194 kPa, Liquid | 0.07971 | 0.2155
4195 kPa, Liquid | 0.0791 | –
4196 kPa, Liquid | 0.0785 | 0.1917
4197 kPa, Liquid | 0.07791 | –
4198 kPa, Liquid | 0.07733 | 0.1741
4199 kPa, Liquid | 0.07676 | –
4200 kPa, Liquid | 0.07619 | 0.1606
4201 kPa, Liquid | 0.07577 | –
4202 kPa, Liquid | 0.07536 | 0.1497
4203 kPa, Liquid | 0.07481 | –
4204 kPa, Liquid | 0.07441 | 0.1407
4205 kPa, Liquid | 0.07401 | –
4206 kPa, Liquid | 0.07348 | 0.1335
4207 kPa, Liquid | 0.07318 | –
4208 kPa, Liquid | 0.07282 | 0.1259
4209 kPa, Liquid | 0.07244 | –
4210 kPa, Liquid | 0.07206 | 0.1185
4211 kPa, Liquid | 0.07181 | –
4212 kPa, Liquid | 0.07151 | 0.1121
4213 kPa, Liquid | 0.07116 | 0.1093
4214 kPa, Liquid | 0.07087 | –
4215 kPa, Liquid | 0.07063 | 0.1035
4216 kPa, Liquid | 0.07039 | –
4217 kPa, Liquid | 0.0701 | –
4218 kPa, Liquid | 0.06986 | –
4219 kPa, Liquid | 0.06962 | –
4220 kPa, Liquid | 0.06939 | –
4221 kPa, Liquid | 0.0692 | –
4222 kPa, Liquid | 0.06897 | –
4223 kPa, Liquid | 0.06874 | –
4224 kPa, Liquid | 0.0686 | –
4225 kPa, Liquid | 0.0684 | –
4226 kPa, Liquid | 0.06824 | –
4227 kPa, Liquid | 0.06804 | –
4228 kPa, Liquid | 0.0679 | 0.08399
4229 kPa, Liquid | 0.06777 | –
4230 kPa, Liquid | 0.06761 | 0.08176
4231 kPa, Liquid | 0.06749 | –
4232 kPa, Liquid | 0.06733 | 0.07987
4233 kPa, Liquid | 0.06722 | –
4234 kPa, Liquid | 0.06709 | 0.07806
4235 kPa, Liquid | 0.06698 | –
4236 kPa, Liquid | 0.06684 | 0.07633
4237 kPa, Liquid | 0.06677 | –
4238 kPa, Liquid | 0.06652 | 0.07491
4239 kPa, Liquid | 0.06652 | –
4240 kPa, Liquid | 0.06647 | 0.07344
4241 kPa, Liquid | 0.06643 | –
4242 kPa, Liquid | 0.06641 | –
4244 kPa, Liquid | 0.06637 | –
4246 kPa, Liquid | 0.0663 | –
4248 kPa, Liquid | 0.06624 | –
4250 kPa, Liquid | 0.06619 | –
4252 kPa, Liquid | 0.06614 | –
4254 kPa, Liquid | 0.06611 | –
4256 kPa, Liquid | 0.06607 | –
4258 kPa, Liquid | 0.066 | –
4260 kPa, Liquid | 0.06598 | 0.06913
4262 kPa, Liquid | 0.06591 | –
4264 kPa, Liquid | 0.06587 | –
4266 kPa, Liquid | 0.06583 | –
4268 kPa, Liquid | 0.06578 | –
4270 kPa, Liquid | 0.06574 | –
4272 kPa, Liquid | 0.06572 | –
4274 kPa, Liquid | 0.06568 | –
4276 kPa, Liquid | 0.06564 | –
4278 kPa, Liquid | 0.06564 | –
4280 kPa, Liquid | 0.06559 | 0.06803
4282 kPa, Liquid | 0.06555 | –
4284 kPa, Liquid | 0.0655 | –
4286 kPa, Liquid | 0.0655 | –
4288 kPa, Liquid | 0.06543 | –
4290 kPa, Liquid | 0.06539 | –
4292 kPa, Liquid | 0.06535 | –
4294 kPa, Liquid | 0.06533 | –
4296 kPa, Liquid | 0.06529 | –
4298 kPa, Liquid | 0.06529 | –
4300 kPa, Liquid | 0.06527 | 0.06726
4302 kPa, Liquid | 0.06525 | –
4304 kPa, Liquid | 0.06521 | –
4306 kPa, Liquid | 0.06516 | –
4308 kPa, Liquid | 0.06514 | –
4310 kPa, Liquid | 0.06514 | –
4312 kPa, Liquid | 0.0651 | –
4314 kPa, Liquid | 0.06505 | –
4316 kPa, Liquid | 0.06503 | –
4318 kPa, Liquid | 0.06501 | –
4320 kPa, Liquid | 0.06499 | 0.06665
4322 kPa, Liquid | 0.06499 | –
4324 kPa, Liquid | 0.06497 | –
4326 kPa, Liquid | 0.06493 | –
4328 kPa, Liquid | 0.06493 | –
4330 kPa, Liquid | 0.06489 | –
4332 kPa, Liquid | 0.06487 | –
4334 kPa, Liquid | 0.06484 | –
4336 kPa, Liquid | 0.06484 | –
4338 kPa, Liquid | 0.06482 | –
4340 kPa, Liquid | 0.06482 | 0.06616
4345 kPa, Liquid | 0.06476 | –
4350 kPa, Liquid | 0.06472 | –
4355 kPa, Liquid | 0.06468 | –
4360 kPa, Liquid | 0.06461 | –
4365 kPa, Liquid | 0.06458 | –
4368 kPa, Liquid | 0.06458 | –
4375 kPa, Liquid | 0.06454 | –
4380 kPa, Liquid | 0.0645 | 0.06546
4385 kPa, Liquid | 0.06446 | –
4390 kPa, Liquid | 0.06443 | –
4400 kPa, Liquid | 0.06439 | 0.06519
4450 kPa, Liquid | 0.06421 | –
4500 kPa, Liquid | 0.06413 | –
4550 kPa, Liquid | 0.06411 | –
4600 kPa, Liquid | 0.06411 | –
4650 kPa, Liquid | 0.06421 | –
4700 kPa, Liquid | 0.06427 | –
4750 kPa, Liquid | 0.06439 | –
4800 kPa, Liquid | 0.06451 | –
4900 kPa, Liquid | 0.06477 | –
4960 kPa, Liquid | 0.06496 | –
4965 kPa, Liquid | 0.065 | –
4967 kPa, Liquid | 0.065 | –
5000 kPa, Liquid | 0.06509 | –
5100 kPa, Liquid | 0.06542 | –
5200 kPa, Liquid | 0.06573 | –
5300 kPa, Liquid | 0.06605 | –
5400 kPa, Liquid | 0.06646 | –
5500 kPa, Liquid | 0.06674 | –
5600 kPa, Liquid | 0.06707 | –
5700 kPa, Liquid | 0.06732 | –
5800 kPa, Liquid | 0.06767 | –
5900 kPa, Liquid | 0.06794 | –
6010 kPa, Liquid | 0.06831 | –
6020 kPa, Liquid | 0.06831 | –
6200 kPa, Liquid | 0.06884 | –
6210 kPa, Liquid | 0.06886 | –
8500 kPa, Liquid | – | 0.0737
9020 kPa, Liquid | – | 0.07453
10028 kPa, Liquid | – | 0.07577
14772 kPa, Liquid | – | 0.08097
